{"source": "patent US20110294736A1", "about": "“COMPOUNDS AND METHODS FOR THE TREATMENT OF AUTOIMMUNE AND INFLAMMATORY DISEASE” (THE PROVOST, FELLOWS AND SCHOLARS OF THE HOLY AND UNDIVIDED …, priority 2008, published 2011)", "key": {"[1]": {"test_system": "Dendritic cells cultured from human PBMC", "assay": "IL-27 and IL-10 ELISA in dendritic cells cultured from human PBMC", "format": "cell-based", "settings": "24 hours", "procedure": "Dendritic cells cultured from human PBMC with IL-4 and GM-CSF were stimulated with TriDap (100 μg/ml), LPS (10 or 100 ng/ml), LPS and TriDAP or medium only. Supernatants were collected after 24 hours and IL-27 and IL-10 concentrations were quantified by ELISA. **P<0.01, ***P<0.001, with versus without TriDAP."}, "BMDC": {"test_system": "BMDC", "assay": "IL-12p40, IL-23, IL-12p70 and IL-10 ELISA in BMDC with p38 or ERK inhibitor, Tri-DAP and LPS or CpG", "format": "cell-based, murine", "procedure": "BMDC (1×10^6) were pretreated with the p38 inhibitor, SB203580 (5 μM—FIGS. 10-11), or the ERK inhibitor UO126 (5 μM—FIGS. 12-13) for 30 minutes prior to stimulation with Tri-DAP (100 μg/ml) or medium alone. After 2 hours the cells were then stimulated with LPS (100 ng/ml—FIGS. 10 and 12), with the TLR agonist CpG (5 μg/ml—FIGS. 11 and 13) or with medium alone. Supernatants were collected after 24 hours and IL-12p40, IL-23, IL-12p70 and IL-10 concentrations were quantified by ELISA."}, "[2]": {"test_system": "MOG-specific IL-17, IFN-γ and TNF-α response of lymph node cells", "assay": "MOG-specific cytokines (ELISA) of restimulated lymph node cells after EAE induction", "format": "in vivo, mice", "settings": "lymph node cells day 5", "procedure": "EAE was induced in C57BL/6 mice by s.c injection with 150 μg of MOG35-55 in CFA supplemented with 4 mg/ml H37 Ra M. tuberculosis on day 0. All mice were injected i.p with PT on days 0 and 2. One group of mice were untreated, the second group were given 100 μg Tri-DAP 6 hours before immunization and a third group were given Tri-DAP (100 μg/mouse) on day 0 in MOG/CFA emulsion and again on days 1, 2 and 4. Mice were sacrificed on day 5 and lymph nodes cells were stimulated with MOG peptide (Myelin oligodendrocyte glycoprotein) (20-100 μg/ml) or as negative and positive controls, medium only or PMA and anti-CD3 respectively. After 72 hours supernatants were removed and analyzed for IL-17, TNF-α (TNF-alpha) and IFN-γ (interferon gamma) by ELISA."}, "[3]": {"test_system": "Peritoneal exudate cells (PECs)", "assay": "TLR agonist induced cytokines (ELISA) of peritoneal exudate cells from treated mice", "format": "in vivo", "settings": "TriDAP 100 μg/mouse/day i.p. 5 days vs PBS; LPS, CpG or Pam3Csk; 24 hours", "procedure": "Mice were treated with either PBS or TriDAP (100 μg/mouse/day i.p.) for 5 days. Peritoneal exudate cells (PECs; 1×10^6/ml) were stimulated with medium alone (control), or with a Toll-like Receptor agonist selected from the following: the TLR4 agonist LPS (lipopolysaccharide) (100 ng/ml), the TLR9 agonist CpG (5 μg/ml), or the TL2 agonist Pam3Csk (500 ng/ml). Supernatants were collected after 24 hours and cytokine concentrations were quantified by ELISA."}, "[4]": {"test_system": "dendritic cells activating Th17 cells", "assay": "IL-17 of CD4 T cells cultured with LPS-stimulated dendritic cells with and without TriDAP", "format": "cell-based, mice", "settings": "TriDAP 100 μg/ml; LPS 10 or 100 ng/ml; KLH 20 μg/ml; 72 hours", "procedure": "CD4 T cells from mice immunized with MOG and LPS, were cultured in vitro with dendritic cells stimulated with LPS (10 or 100 ng/ml) with and without TriDAP (100 μg/ml) in the presence of KLH (20 μg/ml). Supernatants were collected after 72 hours and IL-17 concentrations were quantified by ELISA. *P<0.05, ***P<0.001, with and without TriDAP."}, "EBI3 mRNA": {"test_system": "EBI3 mRNA", "assay": "EBI3 mRNA (real time PCR) in inguinal lymph nodes 72 hours post EAE induction", "format": "in vivo", "settings": "Tri-DAP 100 μg/mouse days 0, 1, 2, vs control mice", "procedure": "EAE was induced in C57BL/6 mice by subcutaneous injection with 150 μg of MOG35-55 in CFA supplemented with 4 mg/ml H37 Ra M. tuberculosis on day 0. All mice were injected i.p with PT on days 0 and 2. One group of mice were untreated and the second group were given Tri-DAP (100 μg/mouse) given on day 0 in MOG/CFA emulsion and again on days 1 and 2. Three mice from each group were sacrificed 72 hours post EAE induction. The inguinal lymph nodes were removed and collected in Trizol. EBI3 mRNA was evaluated by real time PCR normalized to 18S rRNA. Data are shown as fold induction over naïve C57BL/6 inguinal lymph nodes (FIG. 7)."}, "NF-κB": {"test_system": "NF-κB", "settings": "higher than iE-DAP; previously shown; cited from earlier work"}, "[5]": {"test_system": "IL-17-expressing and IFN-γ-expressing T cells in the brains of mice with EAE", "assay": "Intracellular IFN-γ and IL-17 staining (flow cytometry) of brain mononuclear cells of EAE mice", "format": "in vivo", "settings": "CD3+, CD3+ CD4+ and CD3+ CD4− cells; 12 days post EAE induction; PMA/ionomycin", "procedure": "Mononuclear cells were isolated from the brains of control EAE or Tri-DAP treated EAE mice 12 days post EAE induction. Cells were restimulated overnight with PMA/ionomycin and incubated with Brefeldin A. Cells were stained with anti-CD3 (FIG. 4), or anti-CD3 and anti-CD4 (FIGS. 5 and 6). Cells were then fixed and permeabilized, stained intracellularly with anti-IFN-γ and anti-IL-17 and analysed by flow cytometry."}, "[6]": {"settings": "TriDap 100 μg/ml with LPS 10 or 100 ng/ml"}, "[7]": {"settings": "Tri-DAP 100 μg/ml pretreatment, LPS 100 ng/ml or CpG 5 μg/ml, 24 hours"}}}
{"smiles": "C[C@H](N)C(=O)N[C@H](CCC(=O)N[C@@H](CCC[C@@H](N)C(=O)O)C(=O)O)C(=O)O", "note": "[Tri-DAP, L-alanyl-γ-D-glutamyl-meso-diaminopimelic acid]", "values": [{"measurement": "IL-27 expression by human derived dendritic cells", "setting": "[1]; TriDAP 100 μg/ml alone, without TLR agonist", "result": "express IL-27"}, {"measurement": "IL-10 production by human dendritic cells", "setting": "[1]; TriDap 100 μg/ml alone", "result": "Induces"}, {"measurement": "IL-27 expression on co-stimulation with a Toll-like Receptor agonist", "setting": "[1]; [6]", "result": "significant enhanced"}, {"measurement": "TLR-induced IL-10 production by human dendritic cells", "setting": "[1]; [6]", "result": "Enhances"}, {"measurement": "LPS and CpG production of IL-12p40", "setting": "BMDC; [7]", "result": "enhances"}, {"measurement": "LPS and CpG production of IL-12p70", "setting": "BMDC; [7]", "result": "enhances"}, {"measurement": "LPS and CpG production of IL-23", "setting": "BMDC; [7]", "result": "enhances"}, {"measurement": "LPS and CpG induced IL-10 production", "setting": "BMDC; Tri-DAP 100 μg/ml, LPS 100 ng/ml or CpG 5 μg/ml, 24 hours", "result": "enhanced"}, {"measurement": "enhancement of LPS and CpG induced IL-10 production when p38 is inhibited", "setting": "BMDC; p38 inhibitor SB203580 5 μM", "result": "completely abolished"}, {"measurement": "synergy of Tri-DAP with LPS or CpG (IL-12 family), dependence on p38", "setting": "BMDC; p38 inhibitor SB203580 5 μM", "result": "partially dependent on p38"}, {"measurement": "MOG-specific T cell responses (IL-17, IFN-γ, TNF-α)", "setting": "[2]; 100 μg Tri-DAP 6 hours before immunization, vs control EAE mice", "result": "significantly reduced"}, {"measurement": "MOG-specific T cell responses (IL-17, IFN-γ, TNF-α)", "setting": "[2]; Tri-DAP 100 μg/mouse on days 0, 1, 2 and 4", "result": "no detectable"}, {"measurement": "IL-10 secreted by PEC after re-stimulation with TLR agonists", "setting": "[3]", "result": "higher concentrations"}, {"measurement": "TGF-beta secreted by PEC after re-stimulation with TLR agonists", "setting": "[3]", "result": "higher concentrations"}, {"measurement": "ability of dendritic cells to activate IL-17 production by CD4 T cells", "setting": "[4]", "result": "significant reduction"}, {"measurement": "EBI3 gene expression in inguinal lymph nodes", "setting": "EBI3 mRNA", "result": "strong fold increase"}, {"measurement": "ability to activate NF-κB relative to iE-DAP", "setting": "NF-κB", "result": 3, "unit": "fold"}, {"measurement": "IFN-γ production by brain T cells", "setting": "[5]", "result": "suppressed"}, {"measurement": "IL-17 production by brain T cells", "setting": "[5]", "result": "suppressed"}]}
